# Results from patent US20150105252A1, “SUBSTITUTED PYRAZOLES AS HERBICIDES” (E I DU PONT DE NEMOURS AND COMPANY, priority 2013, published 2015).
# Tests used:
# chickweed = assay: Test C postemergence; assay type: in vivo, Stellaria media; conditions: for Plant response rating (scale of 0 to 100 where 0 is no effect and 100 is complete control), Chickweed: Postemergence, 31 g ai/ha, visually evaluated after 13 to 15 days; for Chickweed plant response rating / Plant response rating, Chickweed: postemergence; for Chickweed plant response rating: 62 g ai/ha, scale 0 to 100
# Excerpt: (§1) Seeds of plant species selected from blackgrass (Alopecurus myosuroides), ryegrass, Italian (Italian ryegrass, Lolium multiflorum), wheat (winter wheat, Triticum aestivum), galium (catchweed bedstraw, Galium aparine), corn (Zea mays), crabgrass, large (large crabgrass, Digitaria sanguinalis), foxtail, giant (giant foxtail, Setaria faberii), johnsongrass (Sorghum halepense), lambsquarters (Chenopodium album), morningglory (Ipomoea coccinea), nutsedge, yellow (yellow nutsedge, Cyperus esculentus), pigweed (redroot pigweed, Amaranthus retroflexus), ragweed (common ragweed, Ambrosia elation), soybean (Glycine max), barnyardgrass (Echinochloa crus-galli), oilseed rape (Brassica napus), waterhemp (common waterhemp, Amaranthus rudis), oat, wild (wild oat, Avena fatua), kochia (Kochia scoparia), Surinam grass (Brachiaria decumbens), foxtail, green (green foxtail, Setaria viridis), goosegrass (Eleusine indica), bromegrass, downy (downy bromegrass, Bromus tectorum), nightshade (eastern black nightshade, Solanum ptycanthum), cocklebur (common cocklebur, Xanthium strumarium), cupgrass, woolly (woolly cupgrass, Eriochloa villosa), bermudagrass (Cynodon dactylon), sunflower, (common oilseed sunflower, Helianthus annuus), Russian thistle (Salsola kali), and velvetleaf (Abutilon theophrasti) were planted into a blend of loam soil and sand and treated preemergence with test chemicals formulated in a non-phytotoxic solvent mixture which included a surfactant.
# (§2) At the same time, plants selected from these crop and weed species and also chickweed (common chickweed, Stellaria media), canarygrass (littleseed canarygrass, Phalaris minor), and deadnettle (henbit deadnettle, Lamium amplexicaule), were planted in pots containing Redi-Earth® planting medium (Scotts Company, 14111 Scottslawn Road, Marysville, Ohio 43041) comprising spaghnum peat moss, vermiculite, wetting agent and starter nutrients and treated with postemergence applications of test chemicals formulated in the same manner. Plants ranged in height from 2 to 18 cm (1- to 4-leaf stage) for postemergence treatments. Treated plants and controls were maintained in a greenhouse for 13 to 15 days, after which time all species were compared to controls and visually evaluated. Plant response ratings, summarized in Table C, are based on a scale of 0 to 100 where 0 is no effect and 100 is complete control. A dash (-) response means no test result.
# waterhemp = assay: Test C postemergence; assay type: in vivo, Amaranthus rudis
# Excerpt: as §1, §2
# foxtail, giant = assay: Test C postemergence; assay type: in vivo, Setaria faberii; conditions: for Plant response rating (scale of 0 to 100 where 0 is no effect and 100 is complete control), Foxtail, Giant: Postemergence, 31 g ai/ha, visually evaluated after 13 to 15 days; for Foxtail, Giant plant response rating / Plant response rating, Foxtail, Giant: postemergence; for Foxtail, Giant plant response rating: 62 g ai/ha, scale 0 to 100
# Excerpt: as §1, §2
# wheat = assay: Test C postemergence; assay type: in vivo, Triticum aestivum; conditions: for Plant response rating, Wheat / Wheat plant response rating: postemergence; for Wheat plant response rating: scale 0 to 100
# Excerpt: as §1, §2
# ragweed = assay: Test C postemergence; assay type: in vivo, Ambrosia elation
# Excerpt: as §1, §2
# crabgrass, large = assay: Test C postemergence; assay type: in vivo, Digitaria sanguinalis; conditions: for Plant response rating (scale of 0 to 100 where 0 is no effect and 100 is complete control), Crabgrass, Large: Postemergence, 31 g ai/ha, visually evaluated after 13 to 15 days; for Crabgrass, Large plant response rating / Plant response rating, Crabgrass, Large: postemergence; for Crabgrass, Large plant response rating: 62 g ai/ha, scale 0 to 100
# Excerpt: as §1, §2
# blackgrass = assay: Test C postemergence; assay type: in vivo, Alopecurus myosuroides; conditions: for Plant response rating (scale of 0 to 100 where 0 is no effect and 100 is complete control), Blackgrass: Postemergence, 31 g ai/ha, visually evaluated after 13 to 15 days; for Blackgrass plant response rating / Plant response rating, Blackgrass: postemergence; for Blackgrass plant response rating: 62 g ai/ha, scale 0 to 100
# Excerpt: as §1, §2
# galium = assay: Test C postemergence; assay type: in vivo, Galium aparine; conditions: for Plant response rating (scale of 0 to 100 where 0 is no effect and 100 is complete control), Galium: Postemergence, 31 g ai/ha, visually evaluated after 13 to 15 days
# Excerpt: as §1, §2
# morningglory = assay: Test C postemergence; assay type: in vivo, Ipomoea coccinea; conditions: for Plant response rating (scale of 0 to 100 where 0 is no effect and 100 is complete control), Morningglory: Postemergence, 31 g ai/ha, visually evaluated after 13 to 15 days; for Morningglory plant response rating / Plant response rating, Morningglory: postemergence; for Morningglory plant response rating: 62 g ai/ha, scale 0 to 100
# Excerpt: as §1, §2
# ryegrass, Italian = assay: Test C postemergence; assay type: in vivo, Lolium multiflorum
# Excerpt: as §1, §2
# barnyardgrass = assay: Test C postemergence; assay type: in vivo, Echinochloa crus-galli; conditions: for Plant response rating (scale of 0 to 100 where 0 is no effect and 100 is complete control), Barnyardgrass: Postemergence, 31 g ai/ha, visually evaluated after 13 to 15 days; for Barnyardgrass plant response rating / Plant response rating, Barnyardgrass: postemergence; for Barnyardgrass plant response rating: 62 g ai/ha, scale 0 to 100
# Excerpt: as §1, §2
# corn = assay: Test C postemergence; assay type: in vivo, Zea mays; conditions: for Plant response rating (scale of 0 to 100 where 0 is no effect and 100 is complete control), Corn: Postemergence, 31 g ai/ha, visually evaluated after 13 to 15 days; for Corn plant response rating / Plant response rating, Corn: postemergence; for Corn plant response rating: 62 g ai/ha, scale 0 to 100
# Excerpt: as §1, §2
# soybean = assay: Test C postemergence; assay type: in vivo, Glycine max; conditions: for Plant response rating, Soybean / Soybean plant response rating: postemergence
# Excerpt: as §1, §2
# lambsquarters = assay: Test C preemergence; assay type: in vivo, Chenopodium album; conditions: preemergence
# Excerpt: as §1, §2
# [1] = 250 g ai/ha, scale 0 to 100 (0 no effect, 100 complete control)
# [2] = 125 g ai/ha, scale 0 to 100, 0 no effect, 100 complete control
# [3] = postemergence, 250 g ai/ha, scale 0 to 100 (0 no effect, 100 complete control)
# [4] = postemergence, 125 g ai/ha, scale 0 to 100, 0 no effect, 100 complete control
# [5] = postemergence, 62 g ai/ha, scale 0 to 100
# [6] = Postemergence, 31 g ai/ha, visually evaluated after 13 to 15 days
smiles,measurement,setting,value
CCCNC(=O)c1cc(CCC)n(Cc2cc(C(F)(F)F)nn2C)n1 [Compound 198],"Plant response rating (scale of 0 to 100 where 0 is no effect and 100 is complete control), Chickweed",chickweed,70
same,Chickweed plant response rating,chickweed,70
same,"Plant response rating, Chickweed",chickweed; [1],80
same,"Plant response rating, Chickweed",chickweed; [2],80
same,"Plant response rating, Waterhemp",waterhemp; [3],90
same,"Plant response rating (scale of 0 to 100 where 0 is no effect and 100 is complete control), Foxtail, Giant","foxtail, giant",10
same,"Foxtail, Giant plant response rating","foxtail, giant",10
same,"Plant response rating, Foxtail, Giant","foxtail, giant; [1]",55
same,"Plant response rating, Foxtail, Giant","foxtail, giant; [2]",15
same,"Plant response rating, Wheat",wheat; [1],10
same,Wheat plant response rating,wheat,5
same,"Plant response rating, Ragweed",ragweed; [3],80
same,"Plant response rating, Ragweed",ragweed; [4],55
same,"Plant response rating (scale of 0 to 100 where 0 is no effect and 100 is complete control), Crabgrass, Large","crabgrass, large",5
same,"Crabgrass, Large plant response rating","crabgrass, large",5
same,"Plant response rating, Crabgrass, Large","crabgrass, large; [1]",30
same,"Plant response rating, Crabgrass, Large","crabgrass, large; [2]",15
same,"Plant response rating (scale of 0 to 100 where 0 is no effect and 100 is complete control), Blackgrass",blackgrass,0
same,Blackgrass plant response rating,blackgrass,20
same,"Plant response rating, Blackgrass",blackgrass; [1],30
same,"Plant response rating, Blackgrass",blackgrass; [2],40
same,"Plant response rating (scale of 0 to 100 where 0 is no effect and 100 is complete control), Galium",galium,50
same,Galium plant response rating,galium; [5],85
same,"Plant response rating, Galium",galium; [3],90
same,"Plant response rating, Galium",galium; [4],85
same,"Plant response rating (scale of 0 to 100 where 0 is no effect and 100 is complete control), Morningglory",morningglory,95
same,Morningglory plant response rating,morningglory,60
same,"Plant response rating, Morningglory",morningglory; [1],98
same,"Plant response rating, Morningglory",morningglory; [2],98
same,"Plant response rating, Ryegrass, Italian","ryegrass, Italian; [3]",5
same,"Plant response rating, Ryegrass, Italian","ryegrass, Italian; [4]",5
same,"Plant response rating (scale of 0 to 100 where 0 is no effect and 100 is complete control), Barnyardgrass",barnyardgrass,5
same,Barnyardgrass plant response rating,barnyardgrass,15
same,"Plant response rating, Barnyardgrass",barnyardgrass; [1],35
same,"Plant response rating, Barnyardgrass",barnyardgrass; [2],15
same,"Plant response rating (scale of 0 to 100 where 0 is no effect and 100 is complete control), Corn",corn,5
same,Corn plant response rating,corn,10
same,"Plant response rating, Corn",corn; [1],15
same,"Plant response rating, Corn",corn; [2],10
same,"Plant response rating, Soybean",soybean; [1],95
same,Soybean plant response rating,soybean; [2],95
"CCc1cc(C(=O)NCC(F)(F)F)nn1Cc1ccnc(C(F)(F)F)c1 [Compound 78, 5-ethyl-N-(2,2,2-trifluoroethyl)-1-[[(2-trifluoromethyl)-4-pyridinyl]methyl]-1H-pyrazole-3-carboxamide]","Plant response rating (scale of 0 to 100 where 0 is no effect and 100 is complete control), Chickweed",chickweed,65
same,Chickweed plant response rating,chickweed,80
same,"Plant response rating, Chickweed",chickweed; [1],85
same,"Plant response rating, Chickweed",chickweed; [2],80
same,"Plant response rating (scale of 0 to 100 where 0 is no effect and 100 is complete control), Waterhemp",waterhemp; [6],50
same,Waterhemp plant response rating,waterhemp; [5],70
same,"Plant response rating, Waterhemp",waterhemp; [3],95
same,"Plant response rating, Waterhemp",waterhemp; [4],80
same,"Plant response rating (scale of 0 to 100 where 0 is no effect and 100 is complete control), Foxtail, Giant","foxtail, giant",15
same,"Foxtail, Giant plant response rating","foxtail, giant",20
same,"Plant response rating, Foxtail, Giant","foxtail, giant; [1]",95
same,"Plant response rating, Foxtail, Giant","foxtail, giant; [2]",50
same,"Plant response rating (scale of 0 to 100 where 0 is no effect and 100 is complete control), Wheat",wheat; [6],5
same,Wheat plant response rating,wheat; 62 g ai/ha,10
same,"Plant response rating, Wheat",wheat; [1],35
same,"Plant response rating, Wheat",wheat; [2],10
same,"Plant response rating (scale of 0 to 100 where 0 is no effect and 100 is complete control), Ragweed",ragweed; [6],35
same,Ragweed plant response rating,ragweed; [5],75
same,"Plant response rating, Ragweed",ragweed; [3],95
same,"Plant response rating, Ragweed",ragweed; [4],85
same,"Plant response rating (scale of 0 to 100 where 0 is no effect and 100 is complete control), Crabgrass, Large","crabgrass, large",15
same,"Crabgrass, Large plant response rating","crabgrass, large",25
same,"Plant response rating, Crabgrass, Large","crabgrass, large; [1]",90
same,"Plant response rating, Crabgrass, Large","crabgrass, large; [2]",80
same,"Plant response rating (scale of 0 to 100 where 0 is no effect and 100 is complete control), Blackgrass",blackgrass,5
same,Blackgrass plant response rating,blackgrass,5
same,"Plant response rating, Blackgrass",blackgrass; [1],50
same,"Plant response rating, Blackgrass",blackgrass; [2],10
same,"Plant response rating (scale of 0 to 100 where 0 is no effect and 100 is complete control), Galium",galium,80
same,"Plant response rating, Galium",galium; [3],80
same,"Plant response rating, Galium",galium; [4],80
same,"Plant response rating (scale of 0 to 100 where 0 is no effect and 100 is complete control), Morningglory",morningglory,70
same,Morningglory plant response rating,morningglory,80
same,"Plant response rating, Morningglory",morningglory; [1],100
same,"Plant response rating, Morningglory",morningglory; [2],90
same,"Plant response rating (scale of 0 to 100 where 0 is no effect and 100 is complete control), Ryegrass, Italian","ryegrass, Italian; [6]",5
same,"Ryegrass, Italian plant response rating","ryegrass, Italian; [5]",5
same,"Plant response rating, Ryegrass, Italian","ryegrass, Italian; [3]",35
same,"Plant response rating, Ryegrass, Italian","ryegrass, Italian; [4]",5
same,"Plant response rating (scale of 0 to 100 where 0 is no effect and 100 is complete control), Barnyardgrass",barnyardgrass,5
same,Barnyardgrass plant response rating,barnyardgrass,15
same,"Plant response rating, Barnyardgrass",barnyardgrass; [1],80
same,"Plant response rating, Barnyardgrass",barnyardgrass; [2],15
same,"Plant response rating (scale of 0 to 100 where 0 is no effect and 100 is complete control), Corn",corn,10
same,Corn plant response rating,corn,15
same,"Plant response rating, Corn",corn; [1],80
same,"Plant response rating, Corn",corn; [2],25
same,"Plant response rating (scale of 0 to 100 where 0 is no effect and 100 is complete control), Soybean",soybean; [6],50
same,Soybean plant response rating,"soybean; 62 g ai/ha, scale 0 to 100",80
same,"Plant response rating, Soybean",soybean; [1],85
same,"Plant response rating, Soybean",soybean; [2],80
CCNC(=O)c1cc(CCCl)n(Cc2ccnc(C(F)(F)F)c2)n1 [Compound 179],Lambsquarters plant response rating,"lambsquarters; 31 g ai/ha, visual rating, scale 0 to 100 (0 no effect, 100 complete control), 13 to 15 days",90
same,Lambsquarters plant response rating,"lambsquarters; 62 g ai/ha, scale 0 to 100 (0 no effect, 100 complete control), 13 to 15 days",100
same,"Plant response rating, Lambsquarters","lambsquarters; 125 g ai/ha, 13 to 15 days, scale 0 to 100, 0 = no effect, 100 = complete control",100
same,Lambsquarters plant response rating,"lambsquarters; 250 g ai/ha, scale 0 to 100, 0 is no effect, 100 is complete control",100
